From patent publication US11801242B2, “Compositions and methods for adjuvant cancer therapeutics” (DUKE UNIVERSITY, priority 2018, dated 2023)

What was measured:
Rev1^+/+ MEF cells = assay: HPRT mutagenesis assay; format: cell-based, mouse; conditions: RE01 1.5 μM, cisplatin 0.5 μM
Protocol: For the hypoxanthine-guanine phosphoribosyl transferase (HPRT) mutagenesis assay, cells were first grown in HAT (complete media with 100 μM Hypoxanthine, 0.4 μM Aminopterin and 16 μM Thymidine) media (ThermoFisher) for 14 days to weed out any spontaneous HPRT mutants. After HAT selection, cells were exposed to cisplatin at the 0.5 μM concentration for 24 hours. Then, in fresh media, RE01 at a concentration of 1.5 μM was added to cells. After 24 hours of drug treatment, cells were trypsinized and washed with PBS. While 200-600 cells were plated in complete media in triplicates in 6-well plates to determine clonal efficiency, the rest of the cells were plated in complete media to allow the expression of the phenotype for 8 days. Then, 500,000 cells per treatment were plated in sextuplicate in 10 cm dishes in 6-TG media to allow the proliferation of mutated HPRT^− cells. Colonies were fixed (50% methanol and 10% glacial acetic acid), stained (0.02% Coomassie brilliant blue R-250 stain in methanol: acetic acid: water in a ratio of 46.5:7:46.5 (v/v/v)), and counted after 14-20 days. The HPRT mutation frequency was calculated as the ratio of the number of HPRT^− colonies in 6-TG media to the number of surviving colonies plated in complete media to determine clonal efficiency.

[1] = molecular target: T1, REV1 CTD-REV7/3 interaction (Mus musculus, UniProt Q920Q2); assay: AlphaScreen assay, inhibition of the REV1 CTD-REV7/3 interaction; format: binding; conditions: fitting of the inhibition curve, inhibitor 0-25 μM, n=3
T1 construct: fused on or other part: FLAG tag at the N-terminus (after the TEV site; His10-GB1 solubility tag cleaved off); di-glycine linker between mouse POL kappa RIR K564-N577 and the REV1 CTD; Q9QUG2 (DNA polymerase kappa)
T1 sequence (Q920Q2 whole entry, looked up, the tested form may be a part): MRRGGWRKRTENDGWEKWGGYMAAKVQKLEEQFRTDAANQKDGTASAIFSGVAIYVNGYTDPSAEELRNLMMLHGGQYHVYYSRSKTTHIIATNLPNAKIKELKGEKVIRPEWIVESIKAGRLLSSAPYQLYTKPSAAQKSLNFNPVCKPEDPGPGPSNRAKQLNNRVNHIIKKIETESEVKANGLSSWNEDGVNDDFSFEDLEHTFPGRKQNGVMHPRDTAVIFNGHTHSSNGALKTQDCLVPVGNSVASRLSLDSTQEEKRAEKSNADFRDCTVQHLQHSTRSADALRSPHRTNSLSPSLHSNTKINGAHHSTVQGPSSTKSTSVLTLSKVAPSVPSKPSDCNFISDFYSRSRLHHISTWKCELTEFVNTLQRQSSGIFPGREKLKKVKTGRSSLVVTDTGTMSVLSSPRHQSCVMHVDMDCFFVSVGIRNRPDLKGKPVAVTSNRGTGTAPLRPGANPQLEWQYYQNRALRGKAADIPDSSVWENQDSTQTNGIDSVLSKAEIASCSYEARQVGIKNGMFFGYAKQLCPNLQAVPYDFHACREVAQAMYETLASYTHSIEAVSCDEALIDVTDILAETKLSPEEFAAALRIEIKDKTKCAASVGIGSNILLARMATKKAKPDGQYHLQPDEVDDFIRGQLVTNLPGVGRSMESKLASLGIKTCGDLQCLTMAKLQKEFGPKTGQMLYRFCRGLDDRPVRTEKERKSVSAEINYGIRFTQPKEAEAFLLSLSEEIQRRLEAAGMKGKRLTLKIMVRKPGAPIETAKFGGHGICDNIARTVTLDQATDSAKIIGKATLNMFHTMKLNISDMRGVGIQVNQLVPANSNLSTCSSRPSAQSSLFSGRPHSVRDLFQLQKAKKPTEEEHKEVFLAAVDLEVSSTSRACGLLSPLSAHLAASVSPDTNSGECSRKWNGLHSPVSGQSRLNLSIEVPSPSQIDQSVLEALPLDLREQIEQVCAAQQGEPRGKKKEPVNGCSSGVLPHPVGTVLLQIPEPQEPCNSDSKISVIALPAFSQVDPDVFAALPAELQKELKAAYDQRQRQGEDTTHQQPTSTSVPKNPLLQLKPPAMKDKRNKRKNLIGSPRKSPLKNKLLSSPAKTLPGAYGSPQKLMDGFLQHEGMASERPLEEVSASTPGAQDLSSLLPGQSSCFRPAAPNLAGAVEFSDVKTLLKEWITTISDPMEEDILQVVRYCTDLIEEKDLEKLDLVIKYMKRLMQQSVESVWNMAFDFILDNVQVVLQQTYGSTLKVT
Protocol: The FLAG-tagged mouse POL κ-REV1 CTD was diluted in PBS containing 1 mM Tris(2-carboxyethyl)phosphine (TCEP) and 0.005% Tween-20 at a final protein concentration of 1 nM and transferred to individual wells of a 96-well, half-area, white opaque plate (PerkinElmer). Serially diluted RE01 stock solutions in 50% DMSO were added to the wells to yield final inhibitor concentrations of 0-25 μM in 2% DMSO. After 30 min incubation, anti-FLAG Donor Beads (PerkinElmer) were added to a final concentration of 20 ng/μL to individual wells and incubated for an hour. His8-tagged mouse REV7/3 was subsequently added to the reaction mixture to a final concentration of 10 nM and incubated for 30 min. Anti-His Acceptor Beads (PerkinElmer) were added to a final concentration of 20 ng/μL and incubated for an hour.
Error bars represent standard error (n=3).

KP cells = assay: CellTiter-Glo Luminescence cell viability assay; format: cell-based, mouse
Protocol: Relative viability of cells in response to RE01 and DNA-damaging agents was assessed by the CellTiter-Glo Luminescence cell viability assay (Promega) that determines the number of viable cells based on the relative amount of ATP in the culture, which is directly proportional to the number of metabolically active cells. Briefly, 10,000 cells were plated in each well of a 96-well, white, clear flat bottom plate (Corning). Increasing doses of drugs in various combinations-RE01 alone or in combination with DNA-damaging agents-were added into the plates after 24 hours. The RE01 compound was dissolved in 0.1% DMSO and other drugs were dissolved in solvents ascribed by the manufacturer. In all cases, DMSO controls were run in parallel to the drug treatments. Cells were treated with DMSO or cisplatin (0.5 uM) for 24 hours, followed by RE01 (1.5 uM) treatment for additional 24 hours. Cells were washed and allowed to form colonies for 5-7 days and counted after staining with Coomassie brilliant blue R-250 stain. The relative viability of cells was monitored after 24 hours of drug treatment by adding CellTiter-Glo Luminescence stain to an equilibrated plate per the manufacturer's instructions. Luminescence was measured on the plate reader (Tecan Spark 10M). Relative luminescence, which is indicative of relative survival of metabolically active cells, was calculated by dividing the luminescence of treated samples with DMSO controls.
Viabilities of HT1080 (human fibrosarcoma), A375 (human melanoma), LNCap (human prostate adenocarcinoma), KP (mouse Kras^G12D;p53^−/− lung adenocarcinoma), and AG01522 (human primary fibroblasts) cells were assessed by the Promega CellTiter-Glo Luminescence cell viability assay. Relative luminescence intensities to samples treated with 0 μM RE01 (panel A) or with 0 μM DNA-damaging agents (panels B and C) are plotted. Blue lines represent single agent treatments, and orange lines represent RE01 combination treatments. […]

[2] = molecular target: T2, chimeric FLAG-tagged POL κ RIR-REV1 CTD (Mus musculus, UniProt Q920Q2); assay: In vitro DSS-crosslinking, Western blot; conditions: 100 μM RE01 NaOH salt
T2 construct: the mouse REV1 CTD (F1150-T1249); His10-GB1 (TEV site) (N, cleaved yes); made in house; host or cells: E. coli BL21 Star (DE3)
T2 sequence (Q920Q2 1150-1249): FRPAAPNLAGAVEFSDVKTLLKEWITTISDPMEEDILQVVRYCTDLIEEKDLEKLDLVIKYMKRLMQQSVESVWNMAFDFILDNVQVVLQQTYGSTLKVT
Protocol: Samples of the chimeric FLAG-tagged POL κ RIR-REV1 CTD in the presence of 0 μM or 100 μM RE01 were treated with increasing molar ratios of DSS (disuccinimidyl suberate) and analyzed by SDS-PAGE followed by Western blotting with anti-FLAG antibody. Monomer and crosslinked dimer bands are labeled.
More specifically, chimeric FLAG-tagged POL κ RIR-REV1 CTD in a buffer containing 25 mM HEPES (pH 7.0), 100 mM KCl, and 4 mM TCEP was mixed with either MPD (control) or RE01 NaOH salt in MPD to yield a reaction solution containing 1 μM protein, 5% MPD, and either 0 or 100 μM compound. Appropriate dilutions of DSS in DMSO were added to the reaction mixture to yield DSS-to-protein molar ratios of 0:1, 0.5:1, 1:1, 5:1, 10:1, and 50:1 and a final DMSO concentration of 5% (v/v). The reaction mixture was incubated for 30 min at room temperature and then quenched by addition of 1 M Tris (pH 8.5). The SDS-loading dye containing 4 mM TCEP and 10.8 mM iodoacetamide (to block free cysteines) was added to each reaction mixture, and the samples were loaded onto a Pre-cast 4-20% gradient SDS-PAGE gel (Bio-Rad). The gel samples were transferred to a 0.45 μm nitrocellulose membrane (Bio-Rad) for Western blotting with the anti-FLAG primary antibody M2 (Sigma-Aldrich) and the HRP-conjugated secondary antibody (LI-COR) and imaging with the LI-COR Odyssey system.

In the case of `CC(C)CC(=O)c1c(Nc2ccc(Cl)cc2Cl)[nH]c2c(Cl)ccc([N+](=O)[O-])c2c1=O` [RE01, 8-chloro-2-((2,4-dichlorophenyl)amino)-3-(3-methylbutanoyl)-5-nitroquinolin-4(1H)-one], the “spontaneous or cisplatin-induced HPRT mutation rates” value (Rev1^+/+ MEF cells) is reported as “significantly reduced”, the IC50 [1] is reported as 780 nM and the “sensitization to DNA-damaging agent” value (KP cells; RE01 1.5 μM with 4-nitroquinolone 1-oxide (4-NQO)) is reported as “sensitized”. For the same compound, the “sensitization to DNA-damaging agent” value (KP cells; RE01 1.5 μM with benzo[a]pyrene diol epoxide (BPDE)) was “sensitized”, the “sensitization to DNA-damaging agent” value (KP cells; RE01 1.5 μM with methyl methanesulfonate (MMS)) was “sensitized” and the “dimerization of the REV1 CTD in solution” value [2] was “promotes the dimerization”.
